In one assay the test system is IRE-1, eIF2α and CHOP. The assay can be described thus: Western-blot assay of ER stress markers in livers of HFD mice. The following applies: PDX i.p. 1 μg/mice/day for 8 weeks, FIG. 5C. It is filed as in vivo, mouse. The procedure: (§1) The present study has received the approval of the Institutional Animal Review Committee (Institutional Animal Care and Use Committee in Korea University, Seoul, Korea). The animal experiment was conducted according to the Guide for Care and Use of Laboratory Animals (NH publication, 8th Ed., 2011). A control group and a group of male C57BL/6J(B6) mice at 8 weeks of age were subjected to a normal diet (ND, Brogaarden, Gentofte, Denmark) and a high fat diet (HFD, Research Diets, New Brunswick, N.J., USA) for 8 weeks, respectively. The HFD (high fat diet) group was provided with intra-peritoneal injection of PDX for 8 weeks (1 μg/mice/day). An ethanol injection group was used as a control group. […] A protein sample (35 μg) was applied to 12% SDS-PAGE, transferred to a nitrocellulose film (Amersham Bioscience, Westborough, Mass., USA), detected with a primary antibody, followed by probing with a secondary antibody and another secondary antibody conjugated with horseradish […] (Santa Cruz Biotechnology). The sample was detected by ECL kit. The present inventors have assessed PDX effects upon lipid accumulation in a mouse. For this purpose, a liver cut section from a mouse was subjected to histological assay and western-blot assay through H&E staining and Oil-Red-O staining, while TG accumulation was measured using a TG analysis kit.

Another assay deals with HepG2 cells. The assay can be described thus: Palmitate-induced TG accumulation in HepG2 cells, Oil-Red-O staining with isopropyl alcohol extraction. It counts as cell-based, Human. The protocol:
(§2) Human liver cells, that is, HepG2 cells (ATCC, Manassas, Va., USA) were cultured in high-glucose Dulbecco's modified eagle medium (DMEM, Invitrogen, Carlsbad, Calif., USA), which includes 10% fetal bovine serum (FBS, Invitrogen), 100 units/mL of penicillin and 100 μg/ml of streptomycin. The cells were incubated at 37° C. under a condition of 5% CO2.
(§3) Mycoplasma was not detected in HepG2 cells. PDX (Cayman Chemical, Ann Arbor, Mich., USA) was dissolved in ethanol. Sodium palmitate (Sigma, St. Louis, Mo., USA) was mixed with 2% BSA (fatty acid free level; Sigma) in DMEM. […] In all experiments, the cells were treated with palmitate-BSA and PDX for 24 hours, while 2% BSA-ethanol was used as a control group.
HepG2 cells and a cut section of the liver in a mouse were stained by Oil-Red-O staining method, in order to determine cellular triglyceride such as triglyceride, that is, TG. The liver cells were fixed with 10% formalin for 40 minutes, and then stained with Oil-Red-O solution (Sigma) at 37° C. for 1 hour. A content of Oil-Red-O stained TG was quantified by adding isopropanol to each of the samples. The mixture was gently stirred at 25° C. for 8 minutes. Lastly, 100 μl of isopropanol-extracted sample was analyzed by a spectrophotometer at 510 nm.
In the presence of 200 μM palmitate and PDX (0 to 2 μm), HepG2 cells were subjected to Oil-Red-O staining for 24 hours, while TG accumulation was quantified by isopropyl alcohol extraction.
Further, the present inventors have executed Oil-Red-O staining with respect to palmitate-treated HepG2 cells for 24 hours. TG accumulation was quantified by extraction using isopropyl alcohol.

In the next assay the test system is FOXO1. The assay can be described thus: Western-blot assay of FOXO1 acetylation in HepG2 cells (immuno-precipitation). The conditions noted are these: 0 to 2 μM PDX, 24 hours, FIG. 3B. It is filed as cell-based, Human. The protocol:
After collecting HepG2 cells, protein was extracted from the cells with a buffer (PRO-PREF; Intron Biotechnology, Seoul, Korea) at 4° C. for 1 hour. A protein sample (35 μg) was applied to 12% SDS-PAGE, transferred to a nitrocellulose film (Amersham Bioscience, Westborough, Mass., USA), detected with a primary antibody, followed by probing with a secondary antibody and another secondary antibody conjugated with horseradish […] (Santa Cruz Biotechnology). The sample was detected by ECL kit. Whole protein of HepG2 cell was extracted using an immune-precipitation buffer (IP buffer: 50 mM Tris-HCl, pH 7.8, 150 mM NaCl, 1% IGEPAL CA630) and then diluted to a concentration of 1 mg/mL. A polyclonal antibody to FOXO1 (Santa Cruz Biotechnology) diluted 1:150 was added to the mixture and the sample was incubated at 4° C. overnight. After incubation, each of the samples was provided with 50 μL of a protein A/G-Sepharose bead suspension (Santa Cruz Biotechnology), followed by gently mixing the same at 4° C. for 1 hour. The treated samples were subjected to centrifugation at 12,000 rpm for 30 seconds; and the beads were washed in IP buffer three times. The isolated beads were suspended again in 1×SDS-PAGE loading buffer, heated at 95° C. for 5 minutes, followed by vortexing and flash-centrifugation. […]

The test system of a further assay is SREBP1, FAS and SCD1. The assay can be described thus: Western-blot assay of adipogenesis-related genes in palmitate-treated HepG2 cells. It counts as cell-based, Human. The procedure: as §2, §3
After collecting HepG2 cells, protein was extracted from the cells with a buffer (PRO-PREF; Intron Biotechnology, Seoul, Korea) at 4° C. for 1 hour. A protein sample (35 μg) was applied to 12% SDS-PAGE, transferred to a nitrocellulose film (Amersham Bioscience, Westborough, Mass., USA), detected with a primary antibody, followed by probing with a secondary antibody and another secondary antibody conjugated with horseradish […] (Santa Cruz Biotechnology). The sample was detected by ECL kit.
Under 70% comfluency, 0 to 20 nmol/L […] (si)RNA oligonucleotide to ORP150 purchased from Santa Cruz Biotechnology was transfected to inhibit gene expression. Scramble siRNA was used as a control group. 2 or 4 μg of pCMV3-ORP150 (Sino Biological, Beijing, China) was transiently transfected, leading to over-expression of ORP150. pCMV3 empty-vector was used as a control group. According to instruction of the manufacturer, transfection was executed using lipofectamine 2000 (Invitrogen).
The present inventors have executed western-blot assay of SREBP1 expression in HepG2 cells that were treated with 200 μM palmitate and/or with 0 to 4 μg of ORP150 for 24 hours.

The next assay has as its system ORP150. Kind of assay: Western-blot assay of ORP150 expression in livers of HFD mice. It is filed as in vivo, mouse. The following applies: PDX i.p. 1 μg/mice/day for 8 weeks, FIG. 5D. The protocol:
as §1

Consider `CC/C=C\C[C@H](O)/C=C/C=C\C=C\[C@@H](O)C/C=C\C/C=C\CCC(=O)O` [PDX, 10S,17S-dihydroxy-docosa-4Z,7Z,11E,13Z,15E,19Z-hexaeonic acid], for which the “liver ER stress markers IRE-1, eIF2α and CHOP” value with IRE-1, eIF2α and CHOP is given as “inhibited”. Besides, the “palmitate-induced TG accumulation” value in the assay with HepG2 cells (200 μM palmitate, PDX 0 to 2 μm, 24 hours, FIG. 1A) was “inhibited”; in the assay with HepG2 cells (scramble siRNA, PDX administration, FIG. 2B), “inhibited”. Further, the “TG accumulation inhibitory effects of PDX” value in the assay with HepG2 cells (palmitate, silencing ORP150, FIG. 2B) was “reduced”. Also, the “PDX effects of reducing FOXO1 acetylation” value in the assay on FOXO1 (HepG2 cells transfected with AMPK siRNA) is “inhibited”. Besides, in the assay on FOXO1 (HepG2 cells, scramble siRNA), the FOXO1 acetylation result is “reduced depending upon PDX concentration”. In addition, in the assay with SREBP1, FAS and SCD1 (24 hours, FIG. 1B), the “expression of adipogenesis-related genes including SREBP1, FAS and SCD1” value was “inhibited”. The “expression of adipogenesis-related genes SREBP1, FAS and SCD1” value in the assay on SREBP1, FAS and SCD1 (scramble siRNA, PDX administration, FIG. 2C) is “inhibited”. Moreover, in the assay on SREBP1, FAS and SCD1 (silencing ORP150, FIG. 2C), the “PDX effects of inhibiting the expression of adipogenesis-related genes” value is reported as “significantly reduced”. Also, the “ORP150 expression suppressed in the liver by HFD” value in the assay with ORP150 was “remarkably recovered”.

Source of the values: patent US20190070140A1, “COMPOSITION COMPRISING PROTECTIN DX AS ACTIVE INGREDIENT FOR PREVENTING OR TREATING HYPERLIPIDEMIA OR FATTY LIVER DISEASE” (Solvit P&F, priority 2017, published 2019).
